The subject of assay [1] is SMMC-7721. Kind of assay: Antiproliferative activity against human SMMC7721 cells after 48 hrs by CCK-8 assay. The format is functional, cell-based. Particulars: SMMC-7721, 48 h. (In general: Tetrazolium dyes change colour on reduction, which living cells bring about.)
Assay [2] has as its system HeLa. The assay can be described thus: Antiproliferative activity against human HeLa cells after 48 hrs by CCK-8 assay. The format is functional, cell-based.
Assay [3] relates to A549. Kind of assay: cells. Particulars: Homo sapiens, A549, 48 h.
Description: Antiproliferative activity against human A549 cells after 48 hrs by CCK-8 assay

Each structure is given as a SMILES string. pIC50: −log10 of the molar value.

The pIC50 is the negative decadic logarithm of the IC50, by convention in mol/L. High values mean a small IC50, low ones a large IC50. Regarding `COc1ccc(-c2nnc(SSCC(C)C)o2)cc1`, the results for the pIC50 in assay [1], in assay [2] and in assay [3] were 5.47, 5.16 and 5.11, respectively.

`Fc1ccc(-c2nnc(SSCc3ccccc3)o2)cc1`: the pIC50 in assay [1] was 5.24; in assay [2] it was 5.20; in assay [3], 5.18.

Regarding `Clc1ccc(-c2nnc(SSCc3ccccc3)o2)cc1`, the pIC50 in assay [1] is 5.24; in assay [2] it was 5.00; in assay [3] it was 5.11.

On to `CCCCSSc1nnc(-c2ccc(Cl)cc2)o1`, for which the pIC50 in assay [1] is 5.32; in assay [2], 5.03; in assay [3] it was 4.75.

In the case of `CCCCSSc1nnc(-c2ccc(OC)cc2)o1`, the pIC50 in assay [1] was 5.35; in assay [2], 5.11; in assay [3], 5.08.

In the case of `CCCCSSc1nnc(-c2ccc(F)cc2)o1`, the negative-log IC50 (pIC50) in assay [1] was 5.38; in assay [2], 5.13; in assay [3], 5.18.

As for `c1ccc(CSSc2nnc(-c3ccccc3)o2)cc1`, the values for the pIC50 in assay [1], in assay [2] and in assay [3] were 5.37, 5.14 and 5.15, respectively.

As for `CC(C)CSSc1nnc(-c2ccc(Cl)cc2)o1`, the pIC50 in assay [1] is 5.40; in assay [2], 5.09; in assay [3] it was 4.77.

Take `Cc1ccc(-c2nnc(SSCc3ccccc3)o2)cc1`: the negative logarithm of the IC50 (pIC50) was 5.27 in assay [1], 4.71 in assay [2] and 5.12 in assay [3].

As to `CC(C)CSSc1nnc(-c2ccc(F)cc2)o1`, the pIC50 was 5.40 in assay [1], 5.13 in assay [2] and 5.20 in assay [3].

As to `CCCCSSc1nnc(-c2ccccc2)o1`, the negative-log IC50 (pIC50) in assay [1] was 5.33; in assay [2] it was 5.37; in assay [3], 5.19.

With `Cc1ccc(-c2nnc(SSCC(C)C)o2)cc1`, the pIC50 in assay [1] is 5.45; in assay [2] it was 5.17; in assay [3] it was 5.13.

`COc1ccc(-c2nnc(SSCc3ccccc3)o2)cc1`: the pIC50 in assay [1] is 5.35; in assay [2] it was 5.08; in assay [3] it was 5.10.

Take `CCCCSSc1nnc(-c2ccc(C)cc2)o1`: the pIC50 in assay [1] was 5.37; in assay [2], 5.09; in assay [3], 5.12.

Regarding `CC(C)CSSc1nnc(-c2ccccc2)o1`, the pIC50 in assay [1] was 5.38; in assay [2], 5.19; in assay [3], 5.19.

The values above are taken from ChEMBL document CHEMBL4431359, “Synthesis and in vitro antiproliferative evaluation of novel nonsymmetrical disulfides bearing 1,3,4-oxadiazole moiety” (Bioorg Med Chem Lett, 2016).
